From EP1046400B1, “Use of an Equine herpes virus type-4 thymidine kinase and a nucleoside analog selected from ganciclovir and acyclovir for the killing of human proliferative cells” (Université Pierre et Marie Curie (Paris VI), priority 1999, dated 2000)

Columns and labels:
HCT116 cells = assay: Cytotoxicity assay, colonic carcinoma cells, parental; assay type: cell-based; conditions: Homo sapiens, HCT-116, mean
Protocol: (§1) Cells were seeded at 2.5x10^3 per wells in 24-wells plates. 24 h later they were grown in drug-containing medium for 7 days. Drug concentrations ranging from 0.001 nM to 100 µM were tested in triplicate. The medium was changed with fresh DMEM every 2 days. On day 6, 1.5 µCi of [methyl-^3H]thymidine (Amersham, UK) was added per well. After washes with phosphate-buffered saline (PBS pH 7.3), incorporated radioactivity was determined with a Micro-Beta Plus counter (EG&G Instruments and Wallac, Turku, Finland).

[1] = 10 mg/kg twice a day, humans (refs 34, 35); cited from earlier work
NIH-3T3 = assay: Cytotoxicity assay (inhibition of [methyl-3H]thymidine incorporation), parental cells; assay type: cell-based, murine; conditions: Mus musculus, parental NIH-3T3
Protocol: as §1
(§2) Drug toxicity was assessed by measuring inhibition of cell proliferation. Cells were grown in drug-containing medium for 7 days. [methyl-^3H]-thymidine was added at day 6 and incorporated radioactivity was measured.

[2] = system: murine tk(-) 3T3 EHV4-TK expressing clones; assay: Cytotoxicity assay, TK expressing clones; assay type: cell-based; conditions: for Selectivity Index: IC50 ratio of parental to EHV4-TK clones; for IC50: Mus musculus
Protocol: as §1
(§3) Drug sensitivity of TK expressing clones were tested as described in Table 1.

[3] = system: murine tk(-) 3T3 HSV1-TK expressing clones; assay: Cytotoxicity assay, TK expressing clones; assay type: cell-based; conditions: for Selectivity Index: IC50 ratio of parental to HSV1-TK clones; for IC50: Mus musculus, Table 2, HSV1-TK clones, mean of 3 experiments
Protocol: as §1, §3

[4] = system: HSV1-TK expressing HCT116 cells; assay: Cytotoxicity assay, colonic carcinoma cells; assay type: cell-based, human
Protocol: as §1

[5] = system: EHV4-TK expressing HCT116 cells; assay: Cytotoxicity assay, colonic carcinoma cells; assay type: cell-based, human
Protocol: as §1

[6] = system: EHV4-TK expressing PANC-O2 cell bulk; assay: Cytotoxicity assay, pancreatic tumor cell bulk; assay type: cell-based, murine
Protocol: as §1

[7] = system: HSV1-TK expressing PANC-O2 cell bulk; assay: Cytotoxicity assay, pancreatic tumor cell bulk; assay type: cell-based, murine; conditions: Mus musculus, means of two independent experiments
Protocol: as §1

tk(-) 3T3 cells = assay: GCV toxicity, viability assay (Figure 5-B), non-transfected cells; assay type: cell-based, murine; conditions: Mus musculus, NIH3T3; non-transfected tk(-) 3T3; % viable cells
Protocol: (§4) (A) E-GFP expression in tk(-) 3T3 transfected and non-transfected cells. EHV4-TK gene fused with E-GFP gene (Figure 1-B) was transfected in tk(-) 3T3 cells, and E-GFP positive cells were detected by FACS analysis. Expression of E-GFP was determined a week after transfection (1) and after 2 months of culture in HAT medium (2). (B) GCV toxicity in transfected and non-transfected cells. Results were expressed as % of viable cells compared to cells grown without GCV.
(§5) Parental and viral-TK expressing cells were plated at 5x10^3 per wells in 6-wells dishes. After 24 h, drugs was added to the medium at various concentrations ranging from 0.01 to 100 µM. Medium containing drugs was changed every 2 days. After 7 days of culture, cell viability was assayed by counting viable cells by trypan blue exclusion after 7 days of culture with GCV.
(§6) To facilitate the transgene detection in transfected cells or tissues, the E-GFP gene was fused in frame at the 3' end of the EHV4-TK gene and cloned into an expression vector (Figure 1-B). This construction was then transfected into tk(-) 3T3 cells, followed by FACS analysis of E-GFP positive cells. A cell bulk containing 95% of E-GFP expressing cells was obtained. […] Expression of the EHV4-TK/E-GFP fusion protein efficiently sensitized these cells to GCV for which the IC50 was 0.6 µM, compared to 30 µM for tk(-) 3T3 cells (Figure 5-B).

[8] = system: human tk(-) 143B cells transfected with HSV1- or EHV4-TK; assay: Cytotoxic activity on human cell bulks, EHV4-TK compared with HSV1-TK (Figure 3); assay type: cell-based; conditions: human tk(-) 143B cell bulks
Protocol: Toxicity is presented as mean of IC50 values ± SD. The means, determined on 3 independent experiments, are indicated on the top of each histogram.
as §1
Human tk(-) osteosarcoma 143B cell bulks expressing HSV1- or EHV4-TK were thus generated. We first analyzed the herpesvirus-TK protein expression levels for each cell bulks by […] using polyclonal antibodies against Sh protein (Figure 2-B). There was no detectable band corresponding to fused protein in tk(-) 143B cell extracts.

[9] = system: tk(-) 3T3 cells expressing EHV4-TK/E-GFP fusion protein; assay: GCV toxicity, viability assay (Figure 5-B); assay type: cell-based, murine; conditions: Mus musculus, NIH3T3
Protocol: as §4, §5, §6

[10] = system: VZV-TK expressing tk(-) 3T3 cells (bulk); assay: Cytotoxicity assay, bulk transfected tk(-) 3T3 cells; assay type: cell-based, murine; conditions: for Selectivity Index: IC50 ratio of parental to VZV-TK transfected cells (bulk); for IC50: Mus musculus, NIH3T3, 168 h
Protocol: (§7) Cells were transfected by the various plasmids using a calcium phosphate precipitation kit (GibcoBRL).
as §1, §2

[11] = system: EHV4-TK expressing tk(-) 3T3 cells (bulk); assay: as above; assay type: cell-based, murine; conditions: for Selectivity Index: IC50 ratio of parental to EHV4-TK transfected cells (bulk); for IC50: Mus musculus, NIH3T3, 168 h
Protocol: as §7, §1, §2

[12] = system: HSV1-TK expressing tk(-) 3T3 cells (bulk); assay: as above; assay type: cell-based, murine; conditions: for Selectivity Index: IC50 ratio of parental to HSV1-TK transfected cells (bulk); for IC50: Mus musculus, NIH3T3, 168 h
Protocol: (§8) Cells were transfected by the various plasmids using a calcium phosphate precipitation kit (GibcoBRL). After 48 h of phenotypic expression, cells were grown in selective medium with zeocin (Cayla, Toulouse, France): 25 µg/ml (3T3 cells), 50 µg/ml (143 B cells) or 100 µg/ml (PANC-O2 and HCT 116 cells).
as §1, §2

[13] = system: EBV-TK expressing tk(-) 3T3 cells (bulk); assay: as above; assay type: cell-based, murine; conditions: for Selectivity Index: IC50 ratio of parental to EBV-TK transfected cells (bulk); for IC50: Mus musculus, NIH3T3, 168 h
Protocol: as §8, §1, §2

[14] = NIH3T3, 168 h, Table 1, 7 days drug, mean of 2 experiments
[15] = NIH3T3, Table 2, mean of 3 experiments

Compound | IC50 (NIH-3T3; [14]) [µM] | IC50 (NIH-3T3; [15]) [µM] | Selectivity Index [2] | IC50 [2] [µM] | Selectivity Index [3] | IC50 [3] [µM] | toxicity / sensitivity in EHV4-TK compared with HSV1-TK expressing cells [8] | Selectivity Index [10] | IC50 [10] [µM] | Selectivity Index [11] | IC50 [11] [µM] | Selectivity Index [12] | IC50 [12] [µM] | Selectivity Index [13] | IC50 [13] [µM] | other results
Nc1nc2c(ncn2COC(CO)CO)c(=O)[nH]1 [GCV, 9-(1,3-dihydroxy-2-propoxymethyl)guanine] | 70 | 36.7 | 612 | 0.06 | 230 | 0.16 | approximately twelve fold more sensitive | 9 | 8 | 700 | 0.1 | 350 | 0.2 | 12 | 6 | IC50 (HCT116 cells): 53.4 ± 15 µM; cerebral spinal fluid (CSF) concentrations, fold lower than plasmatic [1]: approximately 3 fold; fold more sensitive than HCT116 cells ([4]; HSV1-TK expressing vs parental HCT116): 170 fold; IC50 ([4]; Homo sapiens, HCT-116, HSV1-TK HCT116, means ± SD for 3 independent experiments): 0.32 ± 0.08 µM; fold more sensitive than HCT116 cells ([5]; EHV4-TK expressing vs parental HCT116): 485 fold; IC50 fold lower for EHV4-TK than for HSV1-TK expressing cells ([5]; HCT116): 3 fold; IC50 ([5]; Homo sapiens, HCT-116, EHV4-TK HCT116, means ± SD for 3 independent experiments): 0.11 ± 0.02 µM; IC50 ([6]; Mus musculus): 0.55 ± 0.07 µM; IC50 fold lower for EHV4-TK than for HSV1-TK expressing cell bulk ([6]; PANC-O2): 3 fold; IC50 [7]: 1.7 ± 0.5 µM; IC50 (tk(-) 3T3 cells): 30 µM; IC50 [9]: 0.6 µM
O=c1[nH]c(=O)n([C@H]2C[C@H](O)[C@@H](CO)O2)cc1/C=C/Br [BVDU, (E)-5-(2-bromovinyl)-2'-deoxyuridine] | 55 | 43.3 | 1237 | 0.035 | 3331 | 0.013 | greater in HSV1-TK than in EHV4-TK expressing cells | 2750 | 0.016 | 2750 | 0.02 | 5500 | 0.015 | 1375 | 0.04 | 
Nc1nc2c(ncn2COCCO)c(=O)[nH]1 [ACV, 9-(2-hydroxyethoxymethyl)guanine] | 165 | 53.3 |  |  |  | 15 |  |  |  |  |  |  | 8.7 |  | 43.3 | 
